Experimental data as given in the supplement of paper PMC10307832.

Legend:
Assay in all cases: relative viability (nuclei count vs DMSO), 5 days (fraction); higher = more cells survive
[1] = system: A-427
How it was run: (§1)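 Values are medians from duplicate plates. Each reflects relative viability, defined as the nuclei count of treated wells over that of vehicle wells. Lung cancer cell lines in 1536-well plates were pin-tool dosed one day after seeding with one drug alone or with a fixed anchor-drug dose plus five library-drug doses (not always all listed) in √10 steps, then fixed, stained and imaged at 4× after 5 days.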

[2] = system: A549
How it was run: as §1

[3] = system: CAL-12T
How it was run: as §1

[4] = system: Calu-6
How it was run: as §1

[5] = system: EBC-1
How it was run: as §1

[6] = system: IA-LM
How it was run: as §1

[7] = system: LK-2
How it was run: as §1

[8] = system: NCI-H1299
How it was run: as §1

[9] = system: NCI-H1650
How it was run: as §1

[10] = system: NCI-H1703
How it was run: as §1

[11] = system: NCI-H1734
How it was run: as §1

[12] = system: NCI-H2009
How it was run: as §1

[13] = system: UMC-11
How it was run: as §1

COc1nc(C)cnc1NS(=O)(=O)c1cccnc1-c1ccc(-c2nnco2)cc1 [Zibotentan] + CC1(C)CCC(c2ccc(Cl)cc2)=C(CN2CCN(c3ccc(C(=O)NS(=O)(=O)c4ccc(N[C@H](CCN5CCOCC5)CSc5ccccc5)c(S(=O)(=O)C(F)(F)F)c4)cc3)CC2)C1 [Navitoclax] (partner 0.5 µM)
relative viability ([1]; first compound 0.08 µM): 0.943 | relative viability ([1]; first compound 0.253 µM): 0.978 | relative viability ([1]; first compound 0.8 µM): 0.978 | relative viability ([1]; first compound 2.53 µM): 0.995 | relative viability ([2]; first compound 0.08 µM): 1.45 | relative viability ([2]; first compound 0.253 µM): 1.18 | relative viability ([2]; first compound 0.8 µM): 1.26 | relative viability ([2]; first compound 2.53 µM): 1.2 | relative viability ([3]; first compound 0.08 µM): 1.27 | relative viability ([3]; first compound 0.253 µM): 1 | relative viability ([3]; first compound 0.8 µM): 1.45 | relative viability ([3]; first compound 2.53 µM): 1.06 | relative viability ([4]; first compound 0.08 µM): 0.832 | relative viability ([4]; first compound 0.253 µM): 0.79 | relative viability ([4]; first compound 0.8 µM): 0.888 | relative viability ([4]; first compound 2.53 µM): 0.894 | relative viability ([5]; first compound 0.08 µM): 0.487 | relative viability ([5]; first compound 0.253 µM): 0.499 | relative viability ([5]; first compound 0.8 µM): 0.477 | relative viability ([5]; first compound 2.53 µM): 0.38 | relative viability ([6]; first compound 0.08 µM): 0.764 | relative viability ([6]; first compound 0.253 µM): 0.688 | relative viability ([6]; first compound 0.8 µM): 0.682 | relative viability ([6]; first compound 2.53 µM): 0.699 | relative viability ([7]; first compound 0.08 µM): 1.1 | relative viability ([7]; first compound 0.253 µM): 0.807 | relative viability ([7]; first compound 0.8 µM): 0.806 | relative viability ([7]; first compound 2.53 µM): 0.828 | relative viability ([8]; first compound 0.08 µM): 1.05 | relative viability ([8]; first compound 0.253 µM): 0.998 | relative viability ([8]; first compound 0.8 µM): 1.05 | relative viability ([8]; first compound 2.53 µM): 1.05 | relative viability ([9]; first compound 0.08 µM): 1.26 | relative viability ([9]; first compound 0.8 µM): 1.36 | relative viability ([9]; first compound 2.53 µM): 1.09 | relative viability ([10]; first compound 0.08 µM): 1.15 | relative viability ([10]; first compound 0.253 µM): 1.08 | relative viability ([10]; first compound 0.8 µM): 1.25 | relative viability ([10]; first compound 2.53 µM): 1.03 | relative viability ([11]; first compound 0.08 µM): 0.906 | relative viability ([11]; first compound 0.253 µM): 0.881 | relative viability ([11]; first compound 0.8 µM): 0.822 | relative viability ([11]; first compound 2.53 µM): 0.897 | relative viability ([12]; first compound 0.08 µM): 1.17 | relative viability ([12]; first compound 0.253 µM): 1.08 | relative viability ([12]; first compound 0.8 µM): 1.2 | relative viability ([12]; first compound 2.53 µM): 1.25 | relative viability ([13]; first compound 0.08 µM): 0.303 | relative viability ([13]; first compound 0.253 µM): 0.32 | relative viability ([13]; first compound 0.8 µM): 0.293 | relative viability ([13]; first compound 2.53 µM): 0.302

O=c1cc(N2CCOCC2)oc2c(-c3cccc4c3sc3ccccc34)cccc12 + CS(=O)(=O)N1CCN(Cc2cc3nc(-c4cccc5[nH]ncc45)nc(N4CCOCC4)c3s2)CC1 [Pictilisib] (partner 1 µM)
relative viability ([1]; first compound 0.01 µM): 0.902 | relative viability ([1]; first compound 0.03162 µM): 0.8 | relative viability ([1]; first compound 0.1 µM): 0.68 | relative viability ([1]; first compound 0.3162 µM): 0.635 | relative viability ([1]; first compound 1 µM): 0.742 | relative viability ([2]; first compound 0.01 µM): 0.582 | relative viability ([2]; first compound 0.03162 µM): 0.526 | relative viability ([2]; first compound 0.1 µM): 0.601 | relative viability ([2]; first compound 0.3162 µM): 0.516 | relative viability ([2]; first compound 1 µM): 0.599 | relative viability ([3]; first compound 0.01 µM): 0.368 | relative viability ([3]; first compound 0.1 µM): 0.485 | relative viability ([3]; first compound 0.3162 µM): 0.551 | relative viability ([3]; first compound 1 µM): 0.326 | relative viability ([4]; first compound 0.01 µM): 0.879 | relative viability ([4]; first compound 0.03162 µM): 0.917 | relative viability ([4]; first compound 0.1 µM): 1.06 | relative viability ([4]; first compound 0.3162 µM): 0.9 | relative viability ([4]; first compound 1 µM): 1.04 | relative viability ([5]; first compound 0.01 µM): 0.409 | relative viability ([5]; first compound 0.03162 µM): 0.35 | relative viability ([5]; first compound 0.1 µM): 0.338 | relative viability ([5]; first compound 0.3162 µM): 0.378 | relative viability ([5]; first compound 1 µM): 0.371 | relative viability ([6]; first compound 0.01 µM): 0.304 | relative viability ([6]; first compound 0.03162 µM): 0.34 | relative viability ([6]; first compound 0.1 µM): 0.271 | relative viability ([6]; first compound 0.3162 µM): 0.357 | relative viability ([6]; first compound 1 µM): 0.337 | relative viability ([7]; first compound 0.01 µM): 0.676 | relative viability ([7]; first compound 0.03162 µM): 0.562 | relative viability ([7]; first compound 0.1 µM): 0.615 | relative viability ([7]; first compound 0.3162 µM): 0.578 | relative viability ([7]; first compound 1 µM): 0.64 | relative viability ([8]; first compound 0.01 µM): 0.922 | relative viability ([8]; first compound 0.03162 µM): 0.688 | relative viability ([8]; first compound 0.1 µM): 0.897 | relative viability ([8]; first compound 0.3162 µM): 0.816 | relative viability ([8]; first compound 1 µM): 0.801 | relative viability ([9]; first compound 0.03162 µM): 0.549 | relative viability ([9]; first compound 0.1 µM): 0.56 | relative viability ([9]; first compound 0.3162 µM): 0.504 | relative viability ([9]; first compound 1 µM): 0.514 | relative viability ([10]; first compound 0.01 µM): 0.245 | relative viability ([10]; first compound 0.03162 µM): 0.221 | relative viability ([10]; first compound 0.1 µM): 0.223 | relative viability ([10]; first compound 0.3162 µM): 0.253 | relative viability ([10]; first compound 1 µM): 0.252 | relative viability ([11]; first compound 0.01 µM): 0.445 | relative viability ([11]; first compound 0.03162 µM): 0.472 | relative viability ([11]; first compound 0.1 µM): 0.452 | relative viability ([11]; first compound 0.3162 µM): 0.504 | relative viability ([11]; first compound 1 µM): 0.446 | relative viability ([12]; first compound 0.01 µM): 0.802 | relative viability ([12]; first compound 0.03162 µM): 0.864 | relative viability ([12]; first compound 0.1 µM): 0.735 | relative viability ([12]; first compound 0.3162 µM): 0.796 | relative viability ([12]; first compound 1 µM): 0.813 | relative viability ([13]; first compound 0.01 µM): 0.812 | relative viability ([13]; first compound 0.03162 µM): 0.825 | relative viability ([13]; first compound 0.1 µM): 0.773 | relative viability ([13]; first compound 0.3162 µM): 0.819 | relative viability ([13]; first compound 1 µM): 0.796
